# According to EP4755885A1 (Shanghai Hansoh Biomedical Co., Ltd., priority 2023, dated 2025):
# Where two headings read alike, the source gives them in different places.
# How the values were obtained:
# [1] = Pharmacokinetic evaluation in mice, oral administration; format: in vivo, Balb/c mice; details: p.o. 5 mg/kg, plasma, single PK; for AUC(0-inf) / AUC(0-t) / Cmax / Tmax / MRT inf: mouse, in vivo, po; for MRT inf: read-out: MRT 0-∞
# Summary of the method: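 Male Balb/c mice (n=3) dosed p.o. at 5 mg/kg after overnight fast, vehicle 10% PEG400/10% PG/80% glycine buffer (pH 10), 0.5 mg/mL. EDTA plasma, acetonitrile precipitation, compound quantified by LC/MS/MS; PK parameters by noncompartmental-style software calculation.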
# [2] = molecular target: T1, human GLP-1 receptor (Homo sapiens, UniProt P43220); test: cAMP production in cell line stably transformed with human GLP1 receptor, 30 min co-incubation (HTRF); format: cell-based; details: CHO-K1/GLP-1R/CRE-luc cells, stimulation for 0.5 h
# T1 construct: expressed in transfected cells
# Experimental: The purpose of this assay example is to test the ability of the compound to activate the human GLP-1 receptor on cell surface. The EC50 for stimulated cAMP production after activation characterizes the ability of the compound to activate the human GLP-1 receptor.
# In this experiment, the compound and cells were co-incubated for 30 min.
# Frozen cell line CHO-K1/GLP-1R/CRE-luc stably transformed with human GLP1 receptor was removed from a liquid nitrogen tank, and was placed in a 37°C water bath for rapid thawing. The cells were resuspended in DMEM/F12 medium, and after centrifugation, were washed once. The cells were resuspended in an experimental buffer, i.e., DMEM/F12 medium containing 0.1% casein. After centrifugation, cell density was adjusted using the experimental buffer. The cells were plated onto a 384-well plate at a density of 1500 cells/5 µL/well. Then, each well was added with 2.5 µL of IBMX working solution prepared with the buffer, the final concentration of IBMX being 0.5 mM, and 2.5 µL of a serially diluted compound sample (starting from […], 3-fold dilution, 12 concentrations). The plate was centrifuged at 1000 rpm for 1 min, and was stood for incubation at 37°C for 0.5 h. Determination was performed using the Cisbio cAMP - Gs Dynamic kit. cAMP-d2 and anti-cAMP-Eu3+-Cryptate were diluted 18-fold and 20-fold respectively with cAMP Lysis & Detection Buffer, and were respectively mixed homogeneously. Each well was added with 5 µL of diluted cAMP-d2 solution, and the plate was centrifuged at 1000 rpm for 1 min, and shaken for 30 seconds for homogeneous mixing. Then, each well was added with 5 µL of diluted anti-cAMP-Eu3+-Cryptate solution, and the plate was centrifuged at 1000 rpm for 1 min and was incubated in the dark at room temperature for 1 h. HTRF signals were read using the Biotek Synergy H1 microplate reader, the excitation wavelength being 320 nm and the emission wavelengths being 620 nm and 665 nm.
# The signal-to-signal ratio was calculated (665 nm/620 nm * 10,000). Nonlinear fitting between the signal-to-signal ratio and the sample concentration was performed in GraphPad Prism 10 using a four-parameter equation to obtain the EC50 value.
# [3] = Pharmacokinetic evaluation in Macaca fascicularis monkeys, oral administration; format: in vivo; details: cynomolgus monkey, p.o. 5 mg/kg, plasma; for MRT inf: read-out: MRT 0-∞
# Experimental: Macaca fascicularis monkeys were used as test animals to study the pharmacokinetic behavior of the compound of the present invention, administered orally at a dose of 5 mg/kg, in Macaca fascicularis monkeys (plasma).
# Macaca fascicularis monkeys, 3 per group, male.
# Preparation of drug for oral administration: 10%PEG400/10%PG/80% glycine buffer (100 mM glycine, 64 Mm NaOH, […]) buffer.
# Single PK: The compound of the present invention was weighed into a 100 mL glass bottle, and the solution was added. The pH was first adjusted with 1 M NaOH until the compound dissolves to obtain a clear solution, and then the pH was readjusted to pH 9.0-9.5 with 1 M HCl. Sonication was performed for 10 min to obtain a colorless clear solution having a concentration of 1 mg/mL.
# Three Macaca fascicularis monkeys, male, respectively administered p.o. after fasting overnight, at a dose of 5 mg/kg and in an administration volume of 5 mL/kg.
# Blood collection: 0.3 mL of blood was collected from the forelimb vein of the Macaca fascicularis monkeys before administration and at 0.25, 0.5, 1, 2, 4, 6, 8, and 24 h after administration. The blood samples were placed in EDTA-K2 anticoagulant tubes and centrifuged at 6000 rpm at 4°C for 6 min to separate plasma, which was stored at -80°C. The Macaca fascicularis monkeys were fed 4 h after administration.
# • 1) 40 µL of a plasma sample was added with 160 µL of acetonitrile for precipitation, and after mixing, the mixture was centrifuged at 3500 × g for 5 to 20 min. • 2) The supernatant solution after treatment was taken for LC/MS/MS analysis of the concentration of the test compound. The LC/MS/MS analysis instrument was AB Sciex API 4000 Qtrap.
# • Liquid phase condition: Shimadzu LC-20AD pump • Chromatographic column: Agilent ZORBAX XDB-C18 (50×2.1 mm, 3.5 µm) Mobile phase: Solution A was 0.1% formic acid aqueous solution, and Solution B was acetonitrile • Flow rate: 0.4 mL/min • Elution time: 0-4.0 min, the eluent was as follows: […]
# T1 sequence (P43220 24-463): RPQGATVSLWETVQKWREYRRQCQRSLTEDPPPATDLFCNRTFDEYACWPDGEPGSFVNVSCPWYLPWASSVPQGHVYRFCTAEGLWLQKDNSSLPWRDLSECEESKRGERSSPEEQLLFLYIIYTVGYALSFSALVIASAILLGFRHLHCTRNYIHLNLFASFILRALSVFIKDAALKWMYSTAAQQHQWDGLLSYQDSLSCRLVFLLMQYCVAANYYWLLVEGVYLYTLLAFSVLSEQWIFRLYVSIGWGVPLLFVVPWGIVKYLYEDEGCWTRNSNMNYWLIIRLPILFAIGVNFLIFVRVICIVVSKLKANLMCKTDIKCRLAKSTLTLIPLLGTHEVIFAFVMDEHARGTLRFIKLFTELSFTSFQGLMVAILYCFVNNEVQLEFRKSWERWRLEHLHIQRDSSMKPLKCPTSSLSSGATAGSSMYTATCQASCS
SMILES,AUC(0-inf) [1] [ng·h/mL],AUC(0-t) [1] [ng·h/mL],Cmax [1] [ng/mL],Tmax [1] [h],MRT inf [1] [h],tl/2 [1] [h],further results
Cc1cc(-n2nc3c(c2-n2ccn(-c4ccc5c(cnn5C5CC5)c4F)c2=O)[C@H](C)N(C(=O)c2cc4cc([C@H]5CCOC(C)(C)C5)ccc4n2[C@@]2(c4noc(=O)[nH]4)C[C@@H]2COC2CC2)CC3)cc(C)c1F [Example 67],12100,11200,1430,4,8.2,7.6,EC50 [2]: 1.4 nM
C#C[C@H]1C[C@]1(c1noc(=O)[nH]1)n1c(C(=O)N2CCc3nn(-c4cc(C)c(F)c(C)c4)c(-n4ccn(-c5ccc6c(cnn6C6CC6)c5F)c4=O)c3[C@@H]2C)cc2cc([C@H]3CCOC(C)(C)C3)ccc21 [Example 143],–,–,–,–,–,6.9,"AUC(0-inf) ([1]; male, Balb/c): 13300 ng·h/mL; AUC(0-t) ([1]; male, Balb/c): 12200 ng·h/mL; Cmax ([1]; male, Balb/c): 1200 ng/mL; Tmax ([1]; male, Balb/c): 2 h; MRT inf ([1]; male, Balb/c): 9 h; AUC(0-inf) ([3]; male): 26200 ng·h/mL; AUC(0-t) ([3]; male): 26000 ng·h/mL; Cmax ([3]; male): 4040 ng/mL; Tmax ([3]; male): 2.7 h; half-life ([3]; male): 3.2 h; MRT inf ([3]; male): 5.1 h"
"CC#C[C@H]1C[C@]1(c1noc(=O)[nH]1)n1c(C(=O)N2CCc3nn(-c4cc(C)c(F)c(C)c4)c(-n4ccn(-c5ccc6c(cnn6C6CC6)c5F)c4=O)c3[C@@H]2C)cc2cc([C@H]3CCOC(C)(C)C3)ccc21 [Example 144, 3-((1S,2R)-1-(2-((S)-3-(3-(1-cyclopropyl-4-fluoro-1H-indazole-5-yl)-2-carbonyl-2,3-dihydro-1H-imidazole-1-yl)-2-(4-fluoro-3,5-dimethylphenyl)-4-methyl-4,5,6,7-tetrahydro-2H-pyrazolo[4,3-c]pyridin-5-carbonyl)-5-((S)-2,2-dimethyltetrahydro-2H-pyrano-4-yl)-1H-indole-1-yl)-2-(propyl-1-alkynyl-1-yl)cyclopropyl)-1,2,4-oxadiazol-5(4H)-one]",35100,23500,2240,3,20.8,15.7,EC50 ([2]; read-out: EC50): 1 nM
"[2H]C([2H])([2H])n1nc2c3c(c(-n4ccn(-c5c6c(nn5-c5cc(C)c(F)c(C)c5)CCN(C(=O)c5cc7cc([C@H]8CCOC(C)(C)C8)ccc7n5[C@@]5(c7noc(=O)[nH]7)C[C@@H]5C)[C@H]6C)c4=O)ccc31)OCCC2 [Example 282, 3-((1S,2S)-1-(5-((S)-2,2-dimethyltetrahydro-2H-pyran-4-yl)-2-((S)-2-(4-fluoro-3,5-dimethylphenyl)-4-methyl-3-(3-(2-(methyl-d3)-2,7,8,9-tetrahydrooxaheptano[4,3,2-cd]indazol-5-yl)-2-carbonyl-2,3-dihydro-1H-imidazol-1-yl)-4,5,6,7-tetrahydro-2H-pyrazolo[4,3-c]pyridine-5-carbonyl)-1H-indol-1-yl)-2-methylcyclopropyl)-1,2,4-oxadiazol-5(4H)-one]",18200,15000,1510,2,13,9.7,AUC(0-inf) [3]: 17000 ng·h/mL; AUC(0-t) [3]: 7560 ng·h/mL; Cmax [3]: 570 ng/mL; Tmax [3]: 4 h; half-life [3]: 47.6 h; MRT inf [3]: 68.9 h
